Marks after values point to notes of the source that are not given here.
Key:
Assay type in all cases: cell-based, Staphylococcus aureus
MW2 (USA400) CA-MRSA = assay: Minimum bactericidal concentration (MBC); conditions: for combination: MBC of oxacillin with ¼ MIC cefoxitin
Description: (§1) Minimum inhibitory concentrations and minimum bactericidal concentrations (MIC and MBC, respectively) were determined for each isolate in triplicate by microdilution techniques with an inoculum of 5×10^5 CFU/ml according to the Clinical and Laboratory Standards Institute guidelines. Aliquots (5 μl) from clear wells were plated onto TSA drug-free plates for the determination of MBCs, followed by incubation at 37° C. for 24 and 48 hours. For the mutant strains, each one of the three clones was tested. MIC data were reported as median values from at least three independent experiments for each antibiotic. Also, strains containing pEPSA5-based plasmids were tested with and without xylose induction, but chloramphenicol was not added to avoid interference with beta-lactam resistance evaluation. […] The correct inocula were confirmed by plating serial dilutions on agar.

USA300 CA-MRSA = assay: Minimum bactericidal concentration (MBC); conditions: for combination: MBC of oxacillin with ¼ MIC cefoxitin
Description: as §1

[1] = system: CA-MRSA from CSSTI (30 isolates); assay: MIC and synergy assay, clinical isolates
Excerpt: (§2) Analysis of the Type IV SCCmec element, virtually identical between MW2 and USA300, allowed for identification of four genes conserved in the CA-MRSA background, but not in other known MRSA genomes. These four genes therefore served as biomarkers that could be used to distinguish CA-MRSA strains from HA-MRSA strains. PCR of chromosomal DNAs with oligonucleotides specific for mecA, pvl (Lina, G. et al. 1999. Clin. Infect. Dis. 29:1128-1132) and the four specific genes for CA-MRSAs (MW0042/USA300_0041; MW0043/USA300_0042; MW0046/USA300_0045; and MW0047/USA300_0046) identified 30 isolates positive for these genes. […] The code was subsequently broken, confirming that all 30 isolates, designated as CA-MRSA, were from patients with primary skin infections and annotated by the donating hospital as CA-MRSA while the other were blood isolates designated as HA-MRSA. […] The synergistic inhibitory activity of the combined treatment also was further tested on 30 MRSA isolates from complicated skin and soft tissue infections, with CA-MRSA being the most common etiologic agent.
(§3) Two independent batches of clinical isolates were obtained from the Dartmouth Hitchcock Medical Center, Lebanon, N.H. The first group included 200 blood MRSA isolates sub-cultured on 5% Columbia sheep blood agar (Remel). The second group involved 30 MRSA isolates from complicated skin and soft tissue infections (CSSTI) similarly sub-cultured. All strains were grown overnight in CSMHB broth and streaked on selective mannitol salt agar plates for confirmation. DNA extraction was performed on 500 μl of cultures. PCR was performed on all DNAs with oligonucleotides specific for mecA, pvl and the four genes found to be specific for the SCCmec type IV in CA-MRSA: MW0042, MW0043, MW0046, and MW0047. DNA amplification of mecA was used as a control to confirm that all strains were MRSA. DNAs from S. epidermidis, E. coli and S. pneumoniae were used as negative controls to confirm the specificity of the oligonucleotides. After amplification for 30 cycles (5 min of denaturation at 95° C., 30 s of annealing at 54° C. and 1 min extension at 72° C.), PCR products were resolved by electrophoresis through 1.5% agarose gels stained with ethidium bromide. Given the number of clinical isolates tested, only a small random group of PCR products were subjected to DNA sequencing to confirm specificity. S. aureus strain COL, Mu50, N315 and MRSA252 all tested negative for all MW0042, MW0043 and MW0047 and pvl while USA300 and MW2 were positive controls for this PCR reaction. The primer sequences for mecA, MW0042, MW0043 and MW0047 were as follows: mecA-UP 5′-GGTACTGCTATCCACCCTCAAA-3′ (SEQ ID NO:19), mecA-LOW 5′-TTACGACTTGTTGCATACCATCA-3′ (SEQ ID NO:20), MW0042-UP 5′-ATTGGCAGAAATAAACAAAACG-3′ (SEQ ID NO:21), MW0042-LOW 5′-TCGTTTAATTTTTTCCCAAACTC-3′ (SEQ ID NO:22), MW0043-UP 5′-GTTTCAGTTGGTGTTGAAGATCC-3′ (SEQ ID NO:23), MW0043-LOW 5′-CCTATAATTTTCGATAGATTCGTG-3′ (SEQ ID NO:24), MW0047-UP 5′-AGGCATATAAAGAAGCAGGAAAG-3′ (SEQ ID NO:25), MW0047-LOW 5′-CACACTGTTTTCCTACGATATTTG-3′ (SEQ ID NO:26).
as §1, with “agar. […]” for “agar.”

[2] = system: CA-MRSA Strains (30 clinical isolates); assay: MIC and synergy assay, clinical isolates
Excerpt: as §2, §3
as §1, with “agar. […]” for “agar.”

[3] = system: HA-MRSA Strains (30 clinical isolates); assay: MIC and synergy assay, clinical isolates
Excerpt: as §2, §3
as §1, with “agar. […]” for “agar.”

[4] = Staphylococcus aureus, MRSA, 48 h, read-out: MICs 48 hr

SMILES	MBC 48 hr (MW2 (USA400) CA-MRSA)	MBC 48 hr (USA300 CA-MRSA)	MIC [1, 4]	MIC [2, 4]	MIC [3, 4]	MICs 48 hr ([1]; 30 CSSTI isolates, median values, 48 hr)	MICs 48 hr ([2]; 30 CA-MRSA clinical isolates, median values, 48 hr)	MICs 48 hr ([3]; 30 HA-MRSA clinical isolates, median values, 48 hr)
CO[C@@]1(NC(=O)Cc2cccs2)C(=O)N2C(C(=O)O)=C(COC(N)=O)CS[C@@H]21 [CX, cefoxitin]	> 256 µg/mL	> 256 µg/mL	64 µg/mL	64 µg/mL	128 µg/mL			
Cc1onc(-c2ccccc2)c1C(=O)N[C@@H]1C(=O)N2[C@@H]1SC(C)(C)[C@@H]2C(=O)O [OX, oxacillin]	256 µg/mL	256 µg/mL				64^b μg/ml	64^b μg/ml	256^b μg/ml
